Values quoted from earlier work in paper PMC7682800 (Arteriosclerosis, Thrombosis, and Vascular Biology, 2020).

Test system: PAR1
Conditions: oral administration

CCOC(=O)N[C@@H]1CC[C@@H]2[C@@H](C1)C[C@H]1C(=O)O[C@H](C)[C@H]1[C@H]2/C=C/c1ccc(-c2cccc(F)c2)cn1 [vorapaxar]
Pharmacodynamic half-life: ≥ 4 weeks
